Several values for one entry are separate records, joined by “and”; a condition that tells them apart may be missing. Equal values may be shown once.
Tested on: 349418-098-R tumor spheroid viability
Experiment: Anticancer human tumor 349418-098-R patient-derived lung adenocarcinoma cell line growth inhibition
Conditions: spheroids with HUVEC and MSC; for viability, T/C: stronger effect = lower value
Method in brief: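 Complex tumor spheroids combined malignant cells with endothelial cells and mesenchymal stem cells. DNA-damaging drugs and DNA repair inhibitors were tested alone and in combination, at half-log dilutions down from clinical Cmax (top 10 microM if Cmax unknown), 0.25% DMSO final.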

[1] = curve of first compound, second compound 0.003 µM
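Further: spheroids exposed to compound for 7 days before measurement.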
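Wherever viability, T/C is given: percent of vehicle control viability with 100% = DMSO-treated spheroids.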

In the case of `Cc1sc2c(c1C)C(c1ccc(Cl)cc1)=NC(CC(=O)Nc1ccc(O)cc1)c1nnc(C)n1-2` (centres undefined) + CC[C@@]1(O)C(=O)OCc2c1cc1n(c2=O)Cc2cc3c(CN(C)C)c(O)ccc3nc2-1, the IC50 [1] is reported as 71.4 nM, the IC50 (curve of first compound, second compound 0.00949 µM) is reported as 69.2 nM and the IC50 (curve of first compound, second compound 0.03 µM) is reported as 41.6 nM. The IC50 (curve of first compound, second compound 0.0949 µM) was under 9.49 nM, the IC50 (curve of first compound, second compound 0.3 µM) was under 9.49 nM and the viability, T/C (second compound 0.003 µM, first compound 0.00949 µM) was 96.2%. It also gave a viability, T/C (second compound 0.003 µM, first compound 0.03 µM) of 83.1%, a viability, T/C (second compound 0.003 µM, first compound 0.0949 µM) of 39.1% and a viability, T/C (second compound 0.003 µM, first compound 0.3 µM) of 7.85%. For the same compound, the viability, T/C (second compound 0.003 µM, first compound 0.949 µM) was 0.87%, the viability, T/C (second compound 0.003 µM, first compound 3 µM) was 0.47% and the viability, T/C (second compound 0.00949 µM, first compound 0.00949 µM) was 92.4%. For the same compound, the viability, T/C (second compound 0.00949 µM, first compound 0.03 µM) was 78.1%, the viability, T/C (second compound 0.00949 µM, first compound 0.0949 µM) was 40% and the viability, T/C (second compound 0.00949 µM, first compound 0.3 µM) was 6.43%. For the same compound, the viability, T/C (second compound 0.00949 µM, first compound 0.949 µM) was 0.61%, the viability, T/C (second compound 0.00949 µM, first compound 3 µM) was 0.48% and the viability, T/C (second compound 0.03 µM, first compound 0.00949 µM) was 77.9%. The viability, T/C (second compound 0.03 µM, first compound 0.03 µM) was 61.7%, the viability, T/C (second compound 0.03 µM, first compound 0.0949 µM) was 20.9% and the viability, T/C (second compound 0.03 µM, first compound 0.3 µM) was 5.67%. The viability, T/C (second compound 0.03 µM, first compound 0.949 µM) was 0.64%, the viability, T/C (second compound 0.03 µM, first compound 3 µM) was 0.38% and the viability, T/C (second compound 0.0949 µM, first compound 0.00949 µM) was 12.6%. It also gave a viability, T/C (second compound 0.0949 µM, first compound 0.03 µM) of 16.2%, a viability, T/C (second compound 0.0949 µM, first compound 0.0949 µM) of 4.16% and a viability, T/C (second compound 0.0949 µM, first compound 0.3 µM) of 1.07%. It also gave a viability, T/C (second compound 0.0949 µM, first compound 0.949 µM) of 0.3%, a viability, T/C (second compound 0.0949 µM, first compound 3 µM) of 0.35% and a viability, T/C (second compound 0.3 µM, first compound 0.00949 µM) of 2.78%. The viability, T/C (second compound 0.3 µM, first compound 0.03 µM) was 2.56%, the viability, T/C (second compound 0.3 µM, first compound 0.0949 µM) was 1.45% and the viability, T/C (second compound 0.3 µM, first compound 0.3 µM) was 0.63%. The viability, T/C (second compound 0.3 µM, first compound 0.949 µM) was 0.55% and the viability, T/C (second compound 0.3 µM, first compound 3 µM) was 0.39%.

`O=C(c1cc(Cc2n[nH]c(=O)c3ccccc23)ccc1F)N1CCN(C(=O)C2CC2)CC1` was tested, and the viability, T/C (compound 0.0949 µM) was 103% and 97.1% and 105%, the viability, T/C (compound 0.3 µM) was 104% and 106% and 113% and the viability, T/C (compound 0.949 µM) was 101% and 97.6% and 107%. For the same compound, the viability, T/C (compound 3 µM) was 94.8% and 97.7% and 110%, the viability, T/C (compound 9.49 µM) was 84.8% and 83.9% and 106% and the viability, T/C (compound 30 µM) was 56.2% and 53.6% and 74.1%. It also gave an IC50 (curve of compound) of over 30000 nM.

Work on `Cc1cc(C)c(CNC(=O)c2cc(-c3ccc(CN4CCOCC4)cc3)cc3c2cnn3C2CCCC2)c(=O)[nH]1` + COc1cc2c(cc1O)CCNC21CSC2c3c(OC(C)=O)c(C)c4c(c3C(COC1=O)N1C(O)C3Cc5cc(C)c(OC)c(O)c5C(C21)N3C)OCO4 yielded an IC50 (curve of first compound, second compound 30 pM) of over 10000 nM, an IC50 (curve of first compound, second compound 94.9 pM) of over 10000 nM and an IC50 (curve of first compound, second compound 0.0003 µM) of over 10000 nM. It also gave an IC50 (curve of first compound, second compound 0.000949 µM) of under 31.6 nM, an IC50 [1] of under 31.6 nM and a viability, T/C (second compound 30 pM, first compound 0.0316 µM) of 103%. The viability, T/C (second compound 30 pM, first compound 0.1 µM) was 97.3%, the viability, T/C (second compound 30 pM, first compound 0.316 µM) was 105% and the viability, T/C (second compound 30 pM, first compound 1 µM) was 119%. For the same compound, the viability, T/C (second compound 30 pM, first compound 3.16 µM) was 114%, the viability, T/C (second compound 30 pM, first compound 10 µM) was 104% and the viability, T/C (second compound 94.9 pM, first compound 0.0316 µM) was 104%. It also gave a viability, T/C (second compound 94.9 pM, first compound 0.1 µM) of 97.9%, a viability, T/C (second compound 94.9 pM, first compound 0.316 µM) of 102% and a viability, T/C (second compound 94.9 pM, first compound 1 µM) of 118%. It also gave a viability, T/C (second compound 94.9 pM, first compound 3.16 µM) of 115%, a viability, T/C (second compound 94.9 pM, first compound 10 µM) of 77.7% and a viability, T/C (second compound 0.0003 µM, first compound 0.0316 µM) of 98.4%. It also gave a viability, T/C (second compound 0.0003 µM, first compound 0.1 µM) of 90.4%, a viability, T/C (second compound 0.0003 µM, first compound 0.316 µM) of 98.1% and a viability, T/C (second compound 0.0003 µM, first compound 1 µM) of 100%. It also gave a viability, T/C (second compound 0.0003 µM, first compound 3.16 µM) of 98.6%, a viability, T/C (second compound 0.0003 µM, first compound 10 µM) of 72.6% and a viability, T/C (second compound 0.000949 µM, first compound 0.0316 µM) of 0.39%. It also gave a viability, T/C (second compound 0.000949 µM, first compound 0.1 µM) of 0.81%, a viability, T/C (second compound 0.000949 µM, first compound 0.316 µM) of 0.5% and a viability, T/C (second compound 0.000949 µM, first compound 1 µM) of 0.48%. The viability, T/C (second compound 0.000949 µM, first compound 3.16 µM) was 0.45%, the viability, T/C (second compound 0.000949 µM, first compound 10 µM) was 0.53% and the viability, T/C (second compound 0.003 µM, first compound 0.0316 µM) was 1.51%. The viability, T/C (second compound 0.003 µM, first compound 0.1 µM) was 1.6%, the viability, T/C (second compound 0.003 µM, first compound 0.316 µM) was 1.61% and the viability, T/C (second compound 0.003 µM, first compound 1 µM) was 1.74%. It also gave a viability, T/C (second compound 0.003 µM, first compound 3.16 µM) of 2.05% and a viability, T/C (second compound 0.003 µM, first compound 10 µM) of 0.75%.

For `[2H]c1nc(C)nc([2H])c1-c1cc(NC[C@@H](C)c2cccc3c(C(=O)NC)ccnc23)ncn1`, the viability, T/C (compound 0.0316 µM) was 109% and 102% and 93.6%, the viability, T/C (compound 0.1 µM) was 109% and 103% and 105% and the viability, T/C (compound 0.316 µM) was 106% and 101% and 113%. For the same compound, the viability, T/C (compound 1 µM) was 105% (2×) and 107%, the viability, T/C (compound 3.16 µM) was 114% and 103% (2×) and the viability, T/C (compound 10 µM) was 112% and 102% and 105%. It also gave an IC50 (curve of compound) of over 10000 nM.
